Measured values: patent US20070287676A1, “Diagnosis and treatment of endometriosis” (priority 2006, published 2007)

Assays:
[1] = system: YHES cells (immortalized human endometrial stromal cell line); test: MTT cell proliferation assay in YHES cells; type: cell-based; settings: 48 hr; for increased cell proliferation: E2 and P pretreated, vs control
Procedure: An immortalized human endometrial stromal cell line was maintained following Krikun et al. (Krikun et al. 2004 Endocrinology 145:2291-6). Cells were maintained in phenol red-free DMEM/F12 (Gibco, CA) medium supplemented with 10% charcoal-dextran stripped FBS (Biomeda, CA), 1 μl/ml sodium pyruvate (Gibco, CA) and 1× Pen/Strep/Fungizone (Gibco, CA), at 37° C. with 5% C02 in a humidified incubator.
(§1) The YHES cells were harvested by trypsinization and seeded in 96-well plate at ˜1×10^4 cells/well. The cells were allowed to attach to the plate for overnight at 37° C. with 5% C02 in a humidified incubator. Then they were pretreated with physiological concentration of E2 (10^-9M) and P (10^-7M) for 24 hr to maintain hormonal responsiveness. […] Cell growth was valuated by the MTT assay (ATCC, Manassas, Va.). MTT assay was performing according to the manufacturer's instructions, and in triplicate to generate mean values. Cell numbers in the untreated control were arbitrarily assigned as 1. The relative cell growth was expressed as fold increase/decrease relative to the control. Data were presented as mean values from three independently repeated experiments.

[2] = system: YHES cells pretreated with H2O2; test: H2O2-induced cell proliferation, MTT assay; type: cell-based, human; settings: H2O2 1 μM, 48 hours; for suppression of H2O2-induced cell proliferation: vs H2O2 only
Procedure: MTT assay was performed after 48 hours of treatment.
as §1
The addition of H202 was meant to mimic the oxidative stress as reported in endometriosis. […] RU486 suppressed cell proliferation by 75% at the concentration of 100 μM.

[3] = system: YHES cells; test: Long-term culture and morphology after treatment; type: cell-based, human; settings: for recovery judged by morphology: four weeks after the treatment, TSA and RU486 at 100 μM
Description: The micrographs of the first two rows were taken using 20× magnification, and those of the third row were taken using 10× magnification. The micrographs of the first row and the first two micrographs of second row were obtained using differential inference contrast (DIC) optic; the others were obtained without the DIC optic. […]

[4] = system: AR; test: AR mRNA expression by RT-PCR in treated YHES cells; type: cell-based, human; settings: for AR mRNA expression level vs untreated control: 8 h, 18 h and 36 h, TSA 10 μM, CDB 100 μM, NAC 10 mM, semi-quantitative RT-PCR; for AR expression: 36 h of treatment, real-time RT-PCR
Procedure: (§2) The YHES cells were harvested by trypsinization and seeded in 12-well at 5×10^4 cells/well plates and were pretreated with E2 and P as described above. […] Total RNA was isolated from treated cells using TRIzol reagent (Invitrogen, Carlsbad, Calif.) according to the manufacturer's instructions. The integrity of total RNA was inspected on an agarose gel. One microgram of total RNA from each sample was treated with DNase I to remove potential DNA contamination and then reverse-transcribed using Superscript II Reverse Transcriptase (Invitrogen). First-strand cDNA obtained from RNA samples was stored at −80° C. until use. To measure the mRNA expression levels of AR, PR-A, PR-B, Fas and FasL in each cell culture, semi-quantitative PCR analysis was performed.
(§3) Quantitative real-time RT-PCR was carried out on an ABI 7900 DNA sequencer (Applied Biosystems), and monitored by SYBR Green I (Qiagen, Valencia, Calif.). The PCR products of the expected size were visualized on a 0.8% agarose gel. The relative mRNA level of each gene was calculated using relative quantitation of gene expression (Applied Biosystems, Foster City, Calif.) with 18s as an endogenous control. The reproducibility of the quantitative measurements was evaluated by two independent cDNA syntheses. The means and standard deviations of the replicated measurements were calculated and presented as mean ±s.d.

[5] = system: PR-A; test: PR-A mRNA expression by RT-PCR in treated YHES cells; type: cell-based, human; settings: 8 h, 18 h and 36 h; TSA 10 μM, CDB 100 μM, NAC 10 mM; semi-quantitative RT-PCR
Procedure: as §2, §3

[6] = system: PR-B; test: PR-B mRNA expression by RT-PCR in treated YHES cells; type: cell-based, human; settings: 8 h, 18 h and 36 h; TSA 10 μM, CDB 100 μM, NAC 10 mM; semi-quantitative RT-PCR
Procedure: as §2, §3

[7] = system: Fas; test: Fas mRNA expression by RT-PCR in treated YHES cells; type: cell-based, human
Procedure: as §2, §3

[8] = system: AR; test: Western blot of AR protein in treated YHES cells; type: cell-based, human; settings: 16 hrs; TSA 10 μM, CDB 100 μM, NAC 10 mM
Procedure: Western blot analysis was performed to measure protein expression of β-actin, ERα, ERβ, and AR. […] Whole cell lysate was prepared as previously described (44) by using RIPA lysis buffer containing 50 mM Tris, pH 7.4, 150 mM NaCl, 12 mM EDTA, 1% Triton X-100, 0.5% sodium deoxycholate, and 0.1% SDS. To avoid degradation, a protease inhibitor cocktail III (Sigma) was added at 2%. Total protein was quantified using a BCA protein assay kit (Pierce, Rockford, Ill.). Ten microgram of total protein was separated by electrophoresis on 10% SDS-polyacrylamide gels. The protein was then transferred onto PVDF membranes (Milipore, Bedford, Mass.). […] The blot was then subsequently incubated with primary antibody rabbit anti-human ERα (Santa Cruz Biotechnology, CA), rabbit anti-human ERβ (Zymed Laboratories, South San Francisco, Calif.), rabbit anti-β-actin (Cell Signaling Technology, Beverly, Mass.), or rabbit ant-human AR (Santa Cruz Biotechnology, CA), respectively, in blocking solution (5% nonfat dry milk plus PBS) for 2 hr at room temperature. After washing with PBS plus 0.5% Tween-20, the membranes were then incubated with the secondary antibody goat anti-rabbit IgG (H+L)-HRP (Santa Cruz Biotechnology, CA) at 1:8000 dilution in blocking solution for 2 h at room temperature. […]

[9] = system: endometriotic cells; test: Suppression of growth and inflammation of endometriotic cells; type: cell-based; settings: used alone
[10] = system: patients diagnosed with adenomyosis; test: Pilot study of off-label valproic acid in adenomyosis; type: in vivo, human; settings: for relief of dysmenorrhea reported by patients: 3 patients
Description: After informed consent, we recruited three patients diagnosed with adenomyosis (FIG. 28). All three patients had moderate to severe dysmenorrehea. They were all married and parous, and had normal menstrual cycles (28-30 days). […] During the recruitment, all patients were offered the option of hysterectomy or the chance to try an experimental drug. They all chose to try the drug and were all given the full explanation of the experimental nature of this study and possible risks associated with it. Approval for this pilot study was obtained from the local ethics committee at Shanghai OB/GYN Hospital, Fudan University. The diagnosis of adenomyosis of all three patients was made based on symptomology, pelvic examination and vaginal ultrasound evaluation by experienced physicians (FIG. 28). […] The treatment was terminated at the end of the 3rd month after taking the drug and the patients were followed up for an additional 3 months. During treatment, clinical signs, symptoms and ultrasound evaluation were closely monitored. Blood counts and biochemistries including liver function tests, ammonium and coagulation studies were performed monthly.

[11] = Pilot study: safety, tolerability and laboratory monitoring; type: in vivo, human
Description: The diagnosis of adenomyosis of all three patients was made based on symptomology, pelvic examination and vaginal ultrasound evaluation by experienced physicians (FIG. 28). […] The treatment was terminated at the end of the 3rd month after taking the drug and the patients were followed up for an additional 3 months. During treatment, clinical signs, symptoms and ultrasound evaluation were closely monitored. Blood counts and biochemistries including liver function tests, ammonium and coagulation studies were performed monthly.

[12] = system: endometrial cells; settings: immortalized human endometrial stromal cells; cited from earlier work
[13] = system: endometrial stromal cells; settings: in vitro; cited from earlier work
[14] = 18 and 36 h after the treatment

SMILES: CC(=O)O[C@]1(C(C)=O)CC[C@H]2[C@@H]3CCC4=CC(=O)CCC4=C3[C@@H](c3ccc(N(C)C)cc3)C[C@@]21C [CDB, CDB-2914]
- effect on cell proliferation ([1]; 10 μM or lower (10, 1, 0.1 μM)): statistically non-significant inhibition of cell proliferation
- effect on cell proliferation ([1]; 100 μM (highest concentration)): significant suppression of cell proliferation
- suppression of H2O2-induced cell proliferation ([2]; 100 μM): 49%
- cell morphology ([3]; 24 h after the treatment): signs of apparent apoptosis
- recovery judged by morphology [3]: apparently recovered
- AR mRNA expression level vs untreated control [4]: increased
- AR expression [4]: maintained the increased expression
- PR-A mRNA expression level vs untreated control [5]: increased
- PR-B mRNA expression level vs untreated control [6]: increased
- Fas expression [7, 14]: decreased
- Fas expression ([7]; 8 h after the treatment): increased
- AR protein level vs control group [8]: increased

SMILES: Nc1ncn([C@@H]2O[C@H](CO)[C@@H](O)[C@H]2O)c(=O)n1 [5-azacytidine]
- effect of use alone on growth and inflammation [9]: some effect in suppression of growth (but not inflammation)

SMILES: CC(=O)N[C@@H](CS)C(=O)O [NAC, N-acetylcysteine]
- suppression of proliferation ([1]; 10 mM): 35%
- suppression of proliferation ([1]; 30 mM): 50%
- suppression of H2O2-induced cell proliferation ([2]; 10 mM): 63%
- recovery judged by morphology [3]: apparently recovered
- AR mRNA expression level vs untreated control [4]: increased
- AR expression [4]: maintained the increased expression
- PR-A mRNA expression level vs untreated control [5]: increased
- PR-B mRNA expression level vs untreated control [6]: increased
- Fas expression [7, 14]: decreased
- Fas expression ([7]; 8 h after the treatment): increased

SMILES: C[C@]12CC[C@@H]3c4ccc(O)cc4C[C@@H](CCCCCCCCC[S+]([O-])CCCC(F)(F)C(F)(F)F)[C@H]3[C@@H]1CC[C@@H]2O (stereo partly shown) [ICI, ICI 182780]
- increase in proliferation as compared with the control group ([1]; 0.1 μM): about 40%
- effect on cell proliferation ([1]; across 100, 10, 1, 0.1 μM): no statistically significant reduction in proliferation
- effect on H2O2-induced cell proliferation ([2]; 100 μM): did not significantly inhibit

SMILES: CC#C[C@]1(O)CC[C@H]2[C@@H]3CCC4=CC(=O)CCC4=C3[C@@H](c3ccc(N(C)C)cc3)C[C@@]21C [RU486]
- reduction of cell proliferation as compared with controls ([1]; 100 μM): > 95%
- suppression of H2O2-induced cell proliferation ([2]; 100 μM): 75%

SMILES: OO [H2O2]
- increased cell proliferation ([1]; 1 μM): 18%
- increased cell proliferation ([1]; 10 μM): 22%
- effect on cell proliferation ([1]; 100 μM (highest concentration)): induced inhibition of proliferation

SMILES: CCCC(CCC)C(=O)O [VPA, valproic acid]
- average reduction of uterus size ([10]; end of the 3-month treatment, three patients): 33%
- uterus size by physical examination ([10]; end of the 3rd month): slight reduction in uterus size in one patient but no change in the other two
- pelvic and ultrasound examinations ([10]; one month after taking VPA): no change in uterus size or other conditions
- relief of dysmenorrhea reported by patients ([10]; three months after taking the drug (end of treatment)): all three patients reported complete relief of pain without any need for pain-killers
- relief of dysmenorrhea reported by patients ([10]; three months after taking the drug (end of treatment), listed as valproic acid): all three recruited patients reported complete disappearance of dysmenorrhea
- dysmenorrhea reported by patients ([10]; three months after the discontinuation of the treatment): 2 patients reported disappearance of dysmenorrehea, but 1 reported the return of the same symptom
- relief of dysmenorrhea reported by patients ([10]; two months after taking VPA, oral 500 mg b.i.d. then t.i.d.): 2 patients reported complete relief of dysmenorrehea with no need for pain-killers, and 1 reported much relieved pain
- tolerability ([11]; 3-month oral VPA): well tolerated
- serum level of testosterone vs normal range ([11]; end of three month after taking VPA): within the normal range
- liver function and other biochemistries ([11]; monthly during treatment, all cases): remained normal
- effect on cell cycle [12]: induce cell cycle arrest
- effect on proliferation [13]: suppressing proliferation of endometrial and endometriotic cells in vitro
